Laboratory results: publication PMC9670909 (ACS Omega, 2022)

Experiments:
[1] = biological target: T1, MAO-B (Homo sapiens, UniProt P27338); experiment: MAO-B inhibitory assay; assay type: biochemical; conditions: MAO-B IC50, kynuramine 30 μM, potassium phosphate buffer pH 7.4, 37 °C, 20 min
T1 sequence (P27338 1-520): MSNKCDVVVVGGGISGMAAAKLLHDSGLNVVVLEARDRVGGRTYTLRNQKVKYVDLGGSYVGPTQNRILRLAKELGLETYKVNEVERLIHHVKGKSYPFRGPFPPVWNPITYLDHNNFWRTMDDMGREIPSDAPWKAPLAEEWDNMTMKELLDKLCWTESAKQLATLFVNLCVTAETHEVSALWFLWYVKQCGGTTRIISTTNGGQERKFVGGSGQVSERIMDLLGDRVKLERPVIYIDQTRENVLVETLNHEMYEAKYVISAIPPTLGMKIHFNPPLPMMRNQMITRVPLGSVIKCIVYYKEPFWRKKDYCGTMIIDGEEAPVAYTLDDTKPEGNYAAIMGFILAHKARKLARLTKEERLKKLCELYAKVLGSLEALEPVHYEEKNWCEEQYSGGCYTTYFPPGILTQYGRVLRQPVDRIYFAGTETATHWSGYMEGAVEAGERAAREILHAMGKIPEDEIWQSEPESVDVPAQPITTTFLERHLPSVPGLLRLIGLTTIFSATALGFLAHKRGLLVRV

[2] = biological target: T2, Human recombinant MAO-A (Homo sapiens, UniProt P21397); experiment: MAO-A inhibitory assay; assay type: biochemical
T2 sequence (P21397 1-527): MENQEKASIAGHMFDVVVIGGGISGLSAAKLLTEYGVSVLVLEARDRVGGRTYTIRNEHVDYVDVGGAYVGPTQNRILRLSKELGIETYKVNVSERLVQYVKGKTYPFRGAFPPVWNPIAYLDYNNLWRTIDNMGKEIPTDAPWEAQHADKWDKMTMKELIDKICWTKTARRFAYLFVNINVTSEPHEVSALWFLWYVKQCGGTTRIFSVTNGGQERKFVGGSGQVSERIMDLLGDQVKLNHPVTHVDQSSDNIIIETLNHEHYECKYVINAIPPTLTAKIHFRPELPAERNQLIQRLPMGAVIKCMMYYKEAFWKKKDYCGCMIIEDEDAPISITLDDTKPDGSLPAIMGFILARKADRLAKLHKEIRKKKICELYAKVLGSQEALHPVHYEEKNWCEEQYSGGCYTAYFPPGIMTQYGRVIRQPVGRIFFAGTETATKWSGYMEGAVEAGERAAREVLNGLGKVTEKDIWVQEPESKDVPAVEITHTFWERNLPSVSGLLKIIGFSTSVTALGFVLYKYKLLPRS

| Compound | IC50 [1] [µM] | IC50 [2] [µM] |
| --- | --- | --- |
| COc1cc(C)cc(C(=O)c2cc(OCc3ccccc3)cc(OCc3ccccc3)c2)c1OC [compound 25, (3,5-Bis(benzyloxy)phenyl)(2,3-dimethoxy-5-methylphenyl)methanone] | > 100 | > 100 |
| CCOC(=O)c1c(OC)cc(OC)cc1C(=O)c1cc(C)cc(OC)c1OC [compound 21, Ethyl 2-(2,3-dimethoxy-5-methylbenzoyl)-4,6-dimethoxybenzoate] | 61.6 | 47 |
| COC(=O)c1c(OC)cc(OC)cc1C(=O)c1cc(C)cc(OC)c1OC [compound 19, Methyl 2-(2,3-dimethoxy-5-methylbenzoyl)-4,6-dimethoxybenzoate] | > 100 | > 100 |
| COc1cc(O)c2c(c1)C(O)(c1cc(C)cc(OC)c1OC)NC2=O (stereo not drawn) [compound 36, 3-(2,3-Dimethoxy-5-methylphenyl)-3,7-dihydroxy-5-methoxyisoindolin-1-one] | 38.4 | 31.9 |
| COCOc1cc(OC)cc(C(=O)c2cc(C)cc(OC)c2OC)c1C#N [compound 34, 2-(2,3-Dimethoxy-5-methylbenzoyl)-4-methoxy-6-(methoxymethoxy)benzonitrile] | > 100 | 24.8 |
| COc1cc(OC)c2c(c1)C(O)(c1cc(C)cc(OC)c1OC)OC2=O (stereo not drawn) [compound 12, 3-(2,3-Dimethoxy-5-methylphenyl)-3-hydroxy-5,7-dimethoxyisobenzofuran-1(3H)-one] | 52.8 | > 100 |
| COc1cc(OC)c(Br)c(C(=O)c2cc(C)cc(OC)c2OC)c1 [compound 16, (2-Bromo-3,5-dimethoxyphenyl)(2,3-dimethoxy-5-methylphenyl)methanone] | > 100 | 62.1 |
| COc1cc(C)cc(C(=O)c2cc(OCc3ccccc3)cc(OCc3ccccc3)c2C#N)c1OC [compound 27, 2,4-Bis(benzyloxy)-6-(2,3-dimethoxy-5-methylbenzoyl)benzonitrile] | > 100 | > 100 |
| COc1cc(C)cc(C(=O)c2cc(OCc3ccccc3)cc(OCc3ccccc3)c2Br)c1OC [compound 26, (3,5-Bis(benzyloxy)-2-bromophenyl)(2,3-dimethoxy-5-methylphenyl)methanone] | > 100 | > 100 |
| COc1cc(OCc2ccccc2)cc(C(=O)c2cc(C)cc(OC)c2OCc2ccccc2)c1C#N [compound 40, (5-(Benzyloxy)-2-cyano-3-methoxyphenyl) (2-(benzyloxy)-3-methoxy-5-methylphenyl)methanone] | > 100 | > 100 |
| COCOc1cc(OC)cc(C(=O)c2cc(C)cc(OC)c2OC)c1Br [compound 33, (2-Bromo-5-methoxy-3-(methoxymethoxy)phenyl)(2,3-dimethoxy-5-methylphenyl)methanone] | > 100 | 27.5 |
| COc1cc(C)cc(C(=O)c2cc(OCc3ccccc3)cc(O)c2Br)c1OCc1ccccc1 [compound 38, (5-(Benzyloxy)-2-bromo-3-hydroxyphenyl) (2-(benzyloxy)-3-methoxy-5-methylphenyl)methanone] | 94.3 | 20.6 |
| COCOc1cc(O)cc(C(=O)c2cc(C)cc(OC)c2O)c1Br [compound 32, (2-Bromo-5-hydroxy-3-(methoxymethoxy)phenyl) (2-hydroxy-3-methoxy-5-methylphenyl)methanone] | 53.6 | 34.1 |
| COc1cc(OC)c(C#N)c(C(=O)c2cc(C)cc(OC)c2OC)c1 [compound 17, 2-(2,3-Dimethoxy-5-methylbenzoyl)-4,6-dimethoxybenzonitrile] | > 100 | > 100 |
| COc1cc(C)cc(C(=O)c2cc(O)cc(O)c2Br)c1O [compound 31, (2-Bromo-3,5-dihydroxyphenyl)(2-hydroxy-3-methoxy-5-methylphenyl)methanone] | 43.7 | 14.8 |
| COCOc1cc(OCc2ccccc2)cc(C(=O)c2cc(C)cc(OC)c2OCc2ccccc2)c1Br [compound 37, (5-(Benzyloxy)-2-bromo-3-(methoxymethoxy)phenyl) (2-(benzyloxy)-3-methoxy-5-methylphenyl)methanone] | 18.6 | 52.2 |
| COCOc1cc(OC)cc2c1C(=O)NC2(O)c1cc(C)cc(OC)c1OC (stereo not drawn) [compound 35, 3-(2,3-Dimethoxy-5-methylphenyl)-3-hydroxy-5-methoxy-7-(methoxymethoxy)isoindolin-1-one] | > 100 | > 100 |
| COc1cc(OCc2ccccc2)cc(C(=O)c2cc(C)cc(OC)c2OCc2ccccc2)c1Br [compound 39, (5-(Benzyloxy)-2-bromo-3-methoxyphenyl) (2-(benzyloxy)-3-methoxy-5-methylphenyl)methanone] | > 100 | > 100 |
